Laboratory results reported in ChEMBL document CHEMBL2375306, “Antimicrobial peptides containing unnatural amino acid exhibit potent bactericidal activity against ESKAPE pathogens” (Bioorg Med Chem, 2013).
In brackets after ≈: the same amount, converted by molar mass. Square brackets hold non-standard residues; d marks the D form. Peptide text beside a SMILES is read from it. * marks the point of attachment. ξ: configuration not given here. Phe(4-NO2) = N[C@@H](Cc1ccc([N+](=O)[O-])cc1)C(=O)O; Pro(3ξ,4ξ-(CH2)4) = O=C(O)[C@H]1NCC2CCCCC21; Phe(4-Cl) = N[C@@H](Cc1ccc(Cl)cc1)C(=O)O; Phe(4-F) = N[C@@H](Cc1ccc(F)cc1)C(=O)O; Tic = O=C(O)[C@@H]1Cc2ccccc2CN1; X1 = CC(=O)NC(=O)[C@H](CN)N*; Dap = NC[C@H](N)C(=O)O; GABA = NCCCC(=O)O; βAla = NCCC(=O)O

Key:
Assay type in all cases: functional
[1] = test system: Pseudomonas aeruginosa; assay: Antibacterial activity against Pseudomonas aeruginosa PAO1 after 24 hrs by broth microdilution method; details: PAO1, 24 h
[2] = test system: Acinetobacter baumannii; assay: Antibacterial activity against Acinetobacter baumannii WRAIR clinical isolate 13 after 24 hrs by broth microdilution method; details: WRAIR clinical isolate 13, 24 h
[3] = test system: Klebsiella pneumoniae; assay: Antibacterial activity against Klebsiella pneumoniae BAMS clinical isolate 07-18 after 24 hrs by broth microdilution method; details: BAMS clinical isolate 07-18, 24 h
[4] = test system: Klebsiella aerogenes; assay: Antibacterial activity against Enterobacter aerogenes after 24 hrs by broth microdilution method
[5] = test system: Staphylococcus aureus; assay: Antibacterial activity against methicillin-sensitive Staphylococcus aureus UAMS-1 after 24 hrs by broth microdilution method; details: UAMS-1, 24 h
[6] = test system: Enterococcus faecium; assay: Antibacterial activity against Enterococcus faecium MMC4 after 24 hrs by broth microdilution method; details: MMC4, 24 h

CC(=O)NCCC(=O)N[C@@H](Cc1ccc(F)cc1)C(=O)N1Cc2ccccc2C[C@H]1C(=O)N1CC2CCCCC2[C@H]1C(=O)NCCC(=O)N[C@@H](CCCCN)C(=O)N1Cc2ccccc2C[C@H]1C(=O)N1CC2CCCCC2[C@H]1C(=O)NCCC(=O)N[C@@H](Cc1ccc(F)cc1)C(=O)N1Cc2ccccc2C[C@H]1C(=O)N1CC2CCCCC2[C@H]1C(=O)NCCC(=O)N[C@@H](CCCCN)C(=O)N1Cc2ccccc2C[C@H]1C(=O)N[C@@H](CN)C(=O)N[C@@H](CN)C(=O)N[C@@H](CN)C(=O)N[C@@H](CN)C(=O)NC(C)=O (stereo not given in full) (Ac-[βAla][Phe(4-F)][Tic][Pro(3ξ,4ξ-(CH2)4)][βAla]K[Tic][Pro(3ξ,4ξ-(CH2)4)][βAla][Phe(4-F)][Tic][Pro(3ξ,4ξ-(CH2)4)][βAla]K[Tic][Dap][Dap][Dap]-X1)
MBC [1]: > 100 µg/mL
MIC [1]: 50 µg/mL (≈ 20.8 µM)
MBC [2]: 12.5 µg/mL (≈ 5.19 µM)
MIC [2]: 12.5 µg/mL (≈ 5.19 µM)
MBC [3]: 100 µg/mL (≈ 41.5 µM)
MIC [3]: 50 µg/mL (≈ 20.8 µM)
MBC [4]: > 100 µg/mL
MIC [4]: > 100 µg/mL
MBC [5]: > 100 µg/mL
MIC [5]: 100 µg/mL (≈ 41.5 µM)

CC(C)C[C@H](NC(=O)[C@@H](N)CCCCN)C(=O)N1Cc2ccccc2C[C@H]1C(=O)N1CC2CCCCC2[C@H]1C(=O)N[C@@H](CCCCN)C(=O)N1Cc2ccccc2C[C@H]1C(=O)N1CC2CCCCC2[C@H]1C(=O)NC(=O)CN[C@@H](Cc1ccccc1)C(=O)N1Cc2ccccc2C[C@H]1C(=O)N1CC2CCCCC2[C@H]1C(=O)N[C@@H](CCCCN)C(=O)N1Cc2ccccc2C[C@H]1C(=O)N1CC2CCCCC2[C@H]1C(=O)NC(=O)CN[C@@H](Cc1ccccc1)C(=O)N1Cc2ccccc2C[C@H]1C(=O)N1CC2CCCCC2[C@H]1C(=O)N[C@@H](CCCCN)C(=O)N1Cc2ccccc2C[C@H]1C(=O)N1CC2CCCCC2[C@H]1C(=O)N[C@@H](CCCCN)C(=O)N[C@@H](CCCCN)C(=O)N[C@@H](CCCCN)C(=O)N[C@@H](CCCCN)C(N)=O (stereo not given in full)
MBC [6]: 25 µg/mL (≈ 7.3 µM)
MIC [6]: 6.25 µg/mL (≈ 1.82 µM)
MBC [1]: 50 µg/mL (≈ 14.6 µM)
MIC [1]: 50 µg/mL (≈ 14.6 µM)
MBC [2]: 100 µg/mL (≈ 29.2 µM)
MIC [2]: 25 µg/mL (≈ 7.3 µM)
MBC [3]: 100 µg/mL (≈ 29.2 µM)
MIC [3]: > 100 µg/mL
MBC [4]: > 100 µg/mL
MIC [4]: > 100 µg/mL
MBC [5]: 50 µg/mL (≈ 14.6 µM)
MIC [5]: 50 µg/mL (≈ 14.6 µM)

CC(=O)NCC(=O)N[C@@H](Cc1ccc(Cl)cc1)C(=O)N1Cc2ccccc2C[C@H]1C(=O)N1CC2CCCCC2[C@H]1C(=O)NCC(=O)N[C@@H](CCCCN)C(=O)N1Cc2ccccc2C[C@H]1C(=O)N1CC2CCCCC2[C@H]1C(=O)NCC(=O)N[C@@H](Cc1ccc(Cl)cc1)C(=O)N1Cc2ccccc2C[C@H]1C(=O)N1CC2CCCCC2[C@H]1C(=O)NCC(=O)N[C@@H](CCCCN)C(=O)N1Cc2ccccc2C[C@H]1C(=O)N[C@@H](CCCCN)C(=O)N[C@@H](CCCCN)C(=O)N[C@@H](CCCCN)C(=O)N[C@@H](CCCCN)C(N)=O (stereo not given in full) (Ac-G[Phe(4-Cl)][Tic][Pro(3ξ,4ξ-(CH2)4)]GK[Tic][Pro(3ξ,4ξ-(CH2)4)]G[Phe(4-Cl)][Tic][Pro(3ξ,4ξ-(CH2)4)]GK[Tic]KKKK-NH2)
MBC [6]: 25 µg/mL (≈ 9.96 µM)
MIC [6]: 6.25 µg/mL (≈ 2.49 µM)
MBC [1]: 50 µg/mL (≈ 19.9 µM)
MIC [1]: 50 µg/mL (≈ 19.9 µM)
MBC [2]: 25 µg/mL (≈ 9.96 µM)
MIC [2]: 6.25 µg/mL (≈ 2.49 µM)
MBC [3]: 100 µg/mL (≈ 39.8 µM)
MIC [3]: 50 µg/mL (≈ 19.9 µM)
MBC [4]: > 100 µg/mL
MIC [4]: > 100 µg/mL
MBC [5]: 50 µg/mL (≈ 19.9 µM)
MIC [5]: 25 µg/mL (≈ 9.96 µM)

CC(=O)NCC(=O)N[C@@H](Cc1ccccc1)C(=O)N1Cc2ccccc2C[C@H]1C(=O)N1CC2CCCCC2[C@H]1C(=O)NCC(=O)N[C@@H](CN)C(=O)N1Cc2ccccc2C[C@H]1C(=O)N1CC2CCCCC2[C@H]1C(=O)NCC(=O)N[C@@H](Cc1ccccc1)C(=O)N1Cc2ccccc2C[C@H]1C(=O)N1CC2CCCCC2[C@H]1C(=O)NCC(=O)N[C@@H](CN)C(=O)N1Cc2ccccc2C[C@H]1C(=O)N[C@@H](CN)C(=O)N[C@@H](CN)C(=O)N[C@@H](CN)C(=O)N[C@@H](CN)C(=O)NC(C)=O (stereo not given in full) (Ac-GF[Tic][Pro(3ξ,4ξ-(CH2)4)]G[Dap][Tic][Pro(3ξ,4ξ-(CH2)4)]GF[Tic][Pro(3ξ,4ξ-(CH2)4)]G[Dap][Tic][Dap][Dap][Dap]-X1)
MBC [6]: 100 µg/mL (≈ 44.8 µM)
MIC [6]: 50 µg/mL (≈ 22.4 µM)
MBC [1]: 25 µg/mL (≈ 11.2 µM)
MIC [1]: 25 µg/mL (≈ 11.2 µM)
MBC [2]: 12.5 µg/mL (≈ 5.6 µM)
MIC [2]: 12.5 µg/mL (≈ 5.6 µM)
MBC [3]: 25 µg/mL (≈ 11.2 µM)
MIC [3]: 12.5 µg/mL (≈ 5.6 µM)
MBC [4]: 50 µg/mL (≈ 22.4 µM)
MIC [4]: 50 µg/mL (≈ 22.4 µM)
MBC [5]: 100 µg/mL (≈ 44.8 µM)
MIC [5]: > 100 µg/mL

CC(=O)NCC(=O)N[C@@H](Cc1ccccc1)C(=O)N1Cc2ccccc2C[C@H]1C(=O)N1CC2CCCCC2[C@H]1C(=O)NCC(=O)N[C@@H](CCCCN)C(=O)N1Cc2ccccc2C[C@H]1C(=O)N1CC2CCCCC2[C@H]1C(=O)NCC(=O)N[C@@H](Cc1ccccc1)C(=O)N1Cc2ccccc2C[C@H]1C(=O)N1CC2CCCCC2[C@H]1C(=O)NCC(=O)N[C@@H](CCCCN)C(=O)N1Cc2ccccc2C[C@H]1C(=O)N[C@@H](CCCCN)C(=O)N[C@@H](CCCCN)C(=O)N[C@@H](CCCCN)C(=O)N[C@@H](CCCCN)C(N)=O (stereo not given in full) (Ac-GF[Tic][Pro(3ξ,4ξ-(CH2)4)]GK[Tic][Pro(3ξ,4ξ-(CH2)4)]GF[Tic][Pro(3ξ,4ξ-(CH2)4)]GK[Tic]KKKK-NH2)
MBC [6]: 50 µg/mL (≈ 20.5 µM)
MIC [6]: 25 µg/mL (≈ 10.2 µM)
MBC [1]: 100 µg/mL (≈ 41 µM)
MIC [1]: 100 µg/mL (≈ 41 µM)
MBC [2]: 25 µg/mL (≈ 10.2 µM)
MIC [2]: 6.25 µg/mL (≈ 2.56 µM)
MBC [3]: 100 µg/mL (≈ 41 µM)
MIC [3]: 100 µg/mL (≈ 41 µM)
MBC [4]: 100 µg/mL (≈ 41 µM)
MIC [4]: 100 µg/mL (≈ 41 µM)
MBC [5]: > 100 µg/mL
MIC [5]: > 100 µg/mL

CC(=O)NCC(=O)N[C@@H](Cc1ccc(F)cc1)C(=O)N1Cc2ccccc2C[C@H]1C(=O)N1CC2CCCCC2[C@H]1C(=O)NCC(=O)N[C@@H](CCCCN)C(=O)N1Cc2ccccc2C[C@H]1C(=O)N1CC2CCCCC2[C@H]1C(=O)NCC(=O)N[C@@H](Cc1ccc(F)cc1)C(=O)N1Cc2ccccc2C[C@H]1C(=O)N1CC2CCCCC2[C@H]1C(=O)NCC(=O)N[C@@H](CCCCN)C(=O)N1Cc2ccccc2C[C@H]1C(=O)N[C@@H](CCCCN)C(=O)N[C@@H](CCCCN)C(=O)N[C@@H](CCCCN)C(=O)N[C@@H](CCCCN)C(N)=O (stereo not given in full) (Ac-G[Phe(4-F)][Tic][Pro(3ξ,4ξ-(CH2)4)]GK[Tic][Pro(3ξ,4ξ-(CH2)4)]G[Phe(4-F)][Tic][Pro(3ξ,4ξ-(CH2)4)]GK[Tic]KKKK-NH2)
MBC [6]: 50 µg/mL (≈ 20.2 µM)
MIC [6]: 25 µg/mL (≈ 10.1 µM)
MBC [1]: > 100 µg/mL
MIC [1]: > 100 µg/mL
MBC [2]: 25 µg/mL (≈ 10.1 µM)
MIC [2]: 12.5 µg/mL (≈ 5.05 µM)
MBC [3]: 100 µg/mL (≈ 40.4 µM)
MIC [3]: 100 µg/mL (≈ 40.4 µM)
MBC [4]: > 100 µg/mL
MIC [4]: > 100 µg/mL
MBC [5]: 100 µg/mL (≈ 40.4 µM)
MIC [5]: 100 µg/mL (≈ 40.4 µM)

CC(=O)NCC(=O)N[C@@H](Cc1ccc([N+](=O)[O-])cc1)C(=O)N1Cc2ccccc2C[C@H]1C(=O)N1CC2CCCCC2[C@H]1C(=O)NCC(=O)N[C@@H](CCCCN)C(=O)N1Cc2ccccc2C[C@H]1C(=O)N1CC2CCCCC2[C@H]1C(=O)NCC(=O)N[C@@H](Cc1ccc([N+](=O)[O-])cc1)C(=O)N1Cc2ccccc2C[C@H]1C(=O)N1CC2CCCCC2[C@H]1C(=O)NCC(=O)N[C@@H](CCCCN)C(=O)N1Cc2ccccc2C[C@H]1C(=O)N[C@@H](CCCCN)C(=O)N[C@@H](CCCCN)C(=O)N[C@@H](CCCCN)C(=O)N[C@@H](CCCCN)C(N)=O (stereo not given in full) (Ac-G[Phe(4-NO2)][Tic][Pro(3ξ,4ξ-(CH2)4)]GK[Tic][Pro(3ξ,4ξ-(CH2)4)]G[Phe(4-NO2)][Tic][Pro(3ξ,4ξ-(CH2)4)]GK[Tic]KKKK-NH2)
MBC [6]: 50 µg/mL (≈ 19.8 µM)
MIC [6]: 25 µg/mL (≈ 9.88 µM)
MBC [1]: 100 µg/mL (≈ 39.5 µM)
MIC [1]: 50 µg/mL (≈ 19.8 µM)
MBC [2]: 12.5 µg/mL (≈ 4.94 µM)
MIC [2]: 12.5 µg/mL (≈ 4.94 µM)
MBC [3]: 50 µg/mL (≈ 19.8 µM)
MIC [3]: 50 µg/mL (≈ 19.8 µM)
MBC [4]: 100 µg/mL (≈ 39.5 µM)
MIC [4]: 100 µg/mL (≈ 39.5 µM)
MBC [5]: > 100 µg/mL
MIC [5]: 100 µg/mL (≈ 39.5 µM)

CC(=O)NCCCC(=O)N[C@@H](Cc1ccccc1)C(=O)N1Cc2ccccc2C[C@H]1C(=O)N1CC2CCCCC2[C@H]1C(=O)NCCCC(=O)N[C@@H](CCCCN)C(=O)N1Cc2ccccc2C[C@H]1C(=O)N1CC2CCCCC2[C@H]1C(=O)NCCCC(=O)N[C@@H](Cc1ccccc1)C(=O)N1Cc2ccccc2C[C@H]1C(=O)N1CC2CCCCC2[C@H]1C(=O)NCCCC(=O)N[C@@H](CCCCN)C(=O)N1Cc2ccccc2C[C@H]1C(=O)N[C@@H](CCCCN)C(=O)N[C@@H](CCCCN)C(=O)N[C@@H](CCCCN)C(=O)N[C@@H](CCCCN)C(=O)N[C@@H](CCCCN)C(N)=O (stereo not given in full) (Ac-[GABA]F[Tic][Pro(3ξ,4ξ-(CH2)4)][GABA]K[Tic][Pro(3ξ,4ξ-(CH2)4)][GABA]F[Tic][Pro(3ξ,4ξ-(CH2)4)][GABA]K[Tic]KKKKK-NH2)
MBC [1]: > 100 µg/mL
MIC [1]: > 100 µg/mL
MBC [3]: > 100 µg/mL
MIC [3]: > 100 µg/mL
MBC [4]: > 100 µg/mL
MIC [4]: > 100 µg/mL
MBC [5]: > 100 µg/mL
MIC [5]: > 100 µg/mL
